Assays:
Myzus persicae [1] = assay: Aphid settling (choice test) on treated vs control leaves of Brassica rapa subsp. pekinensis; assay type: in vivo; conditions: 0.1% solution in 70% ethanol, mean (± SD), n = 8, 20 aphids/replicate
Experimental: (§1) The peach potato aphids Myzus persicae (Sulzer) and the Chinese cabbage Brassica rapa subsp. pekinensis (Lour.) Hanelt were reared in laboratory at 20 °C, 65% r.h., and L16:8D photoperiod. One to seven days old apterous females of M. persicae and 3-week old plants with 4–5 fully developed leaves were used for experiments. M. persicae were obtained from the laboratory culture maintained at the Department of Botany and Ecology for many generations since 2000. All experiments were carried out under the same conditions of temperature, relative humidity, and photoperiod. The bioassays were started at 10–11.a.m. Each compound was dissolved in 70% ethanol to obtain the recommended 0.1% solution[40]. All compounds were applied on the adaxial and abaxial leaf surfaces by immersing a leaf in the ethanolic solution of a given compound for 30 s.[20]. Control leaves of similar size were immersed in 70% ethanol that was used as a solvent for the studied compounds. Experiments were performed 1 h after the compounds application to allow the evaporation of the solvent. Every plant and aphid were used only once.
This bioassay allows the study of aphid host preferences under semi-natural conditions. In the present study, aphids were given free choice between control and treated excised leaves that were placed in a Petri dish. Aphids were placed in the dish equidistance from treated and untreated leaves, so that aphids could choose between treated (on one half of a Petri dish) and control leaves (on the other half of the dish). […] Each experiment was replicated 8 times (n = 8 replicates, 20 viviparous apterous females/replicate). Aphids that were moving or not on any of the leaves were not counted.
The data of the choice-test were analyzed using Student’s t-test (STATISTICA 13.1. package). […] If aphids settled mainly on the control leaf (p < 0.05), the compound tested in the respective choice-test was stated a deterrent. From the data thus obtained the relative index of deterrence (DI) was calculated: DI = (C − T/C + T) where C was the number of aphids settled on control leaf, T was the number of aphids settled on the leaf treated with the tested compound. The value of DI ranged between 1 (ideal deterrent) and − 1 (ideal attractant)[41].

Myzus persicae [2] = assay: EPG monitoring of aphid probing and feeding (no-choice test); assay type: in vivo; conditions: 8-h EPG
Experimental: as §1
Aphid probing and the phloem sap uptake by M. persicae was monitored using the technique of electronic registration of aphid probing in plant tissues, known as EPG (= Electrical Penetration Graph), that is frequently employed in insect–plant relationship studies considering insects with sucking-piercing mouthparts[42]–[44]. In this experimental set-up, aphid and plant are connected to electrodes and thus made parts of an electric circuit, which is completed when the aphid inserts its stylets into the plant. Weak voltage is supplied in the circuit, and all changing electric properties are recorded as EPG waveforms that can be correlated with aphid activities and stylet position in plant tissues[45],[46]. The parameters describing aphid behaviour during probing and feeding, such as total time of probing, proportion of phloem patterns E1 and E2, number of probes, etc., are good indicators of plant suitability or interference of probing by chemical or physical factors in individual plant tissues[44]–[46]. In the present study, aphids were attached to a golden wire electrode with conductive silver paint (epgsystems. eu) and starved for 1 h prior to the experiment. Probing behaviour of 12 apterous females/studied compound and control was monitored for 8 h continuously with Giga-4 and Giga-8 DC EPG with 1 GΩ of input resistance recording equipment (EPG Systems, Wageningen, The Netherlands). Each aphid was given access to a freshly prepared plant and each aphid/plant combination was used only once. Various behavioural phases were labelled manually using the Stylet + software (www.epgsystems.eu). The following aphid behaviours were distinguished: no penetration (waveform 'np' – aphid stylets outside the plant), pathway phase—penetration of non-phloem tissues (waveforms 'ABC'), phloem phase (salivation into sieve elements, waveform ‘E1’ and ingestion of phloem sap, waveform ‘E2’), and xylem phase (ingestion of xylem sap, waveform 'G'). Waveform ‘G’ occurred rarely irrespective of the treatment. Therefore, in all calculations the xylem phase was added to the pathway phase and termed as probing in non-phloem tissues. The E1/E2 transition patterns were included in E2. Waveform patterns that were not terminated before the end of the experimental period (8 h) were not excluded from the calculations. The parameters derived from EPG recordings were analyzed according to their frequency and duration in configuration related to activities in peripheral and vascular tissues.
All statistical calculations related to data of the no-choice test were performed using StatSoft, Inc. (2014) STATISTICA (data analysis software system), version 12, www.statsoft.com. […]

LoVo/DX cells = assay: Antiproliferative activity, SRB assay, doxorubicin resistant subline; assay type: cell-based, human
Experimental: Cell lines were cultured according to the protocol described before. […] All culture media were supplemented with 2 mM L-glutamine (Sigma-Aldrich, Germany), 100 units/mL penicillin, and 100 µg/mL streptomycin (both from Polfa Tarchomin S.A., Poland). All cell lines were grown at 37 °C with 5% CO2 humidified atmosphere. The solutions of the compounds (50 mM) were prepared by dissolving the substances in DMSO (Sigma Aldrich, Germany). […] The in vitro cytotoxic effect of all agents was examined using the MTT (MV4-11) or SRB assay, described previously. […] Each compound in each concentration was tested in triplicate in a single experiment, which was repeated 3–5 times.

[3] = 0.1% solution, mean ± SE, n = 12
[4] = activities in non-phloem tissues, mean ± SE, n = 10-12
[5] = activities in sieve elements, mean ± SE, n = 10-12

`CC(C)CCCC(C)CCCC(C)CCC[C@]1(C)CC(=O)O[C@H]1CBr` (stereo in doubt) [compound 5, cis-5-Bromomethyl-4-methyl-4-(4′,8′,12′-trimethyltridecyl)dihydrofuran-2-one] was tested, and the “Mean number of aphids settled on treated (test) leaf” value (“Mean number of aphids settled” for short) (Myzus persicae [1]; 1 h after access) was 3.4 (± 1.0), the “Mean number of aphids settled” value (Myzus persicae [1]; 2 h after access) was 3.0 (± 1.1) and the “Mean number of aphids settled” value (Myzus persicae [1]; 24 h after access) was 5.6 (± 1.4). For the same molecule, the “Mean duration of probing (C + G + E)” value (Myzus persicae [2]; [3]) was 0.5 ± 0.1 h, the Number of probes (Myzus persicae [2]; [3]) was 31.6 ± 9.1 and the “Total duration of pathway (C)” value (Myzus persicae [2]; [3]) was 2.8 ± 0.5 h. For the same molecule, the “Total duration of phloem phase (E)” value (Myzus persicae [2]; [3]) was 4.0 ± 0.7 h, the “Total duration of probing (C + G + E)” value (Myzus persicae [2]; [3]) was 7.1 ± 0.4 h and the “Number of probes before first phloem phase” value (Myzus persicae [2]; [4]) was 10.3 ± 3.1. For the same molecule, the “Time from first probe to first phloem phase” value (Myzus persicae [2]; [4]) was 1.4 ± 0.3 h, the “Duration of first phloem phase” value (Myzus persicae [2]; [5]) was 2.2 ± 0.8 h and the “Total duration of phloem salivation E1” value (Myzus persicae [2]; [5]) was 2.4 ± 0.6 min. The “Total duration of phloem sap ingestion E2” value (Myzus persicae [2]; [5]) was 4.0 ± 0.7 h, the “Number of probes < 3 min” value (Myzus persicae [2]; before first phloem phase, mean ± SE, n = 10-12) was 7.1 ± 2.8 and the “Proportion of salivation in phloem phase” value (Myzus persicae [2]; (duration of E1 / duration of E1 + E2)*100) was 3.8%. The “Proportion of phloem phase in total probing” value (Myzus persicae [2]; index = duration of phloem phase E / duration of probing C + G + E) was 54.0%, the IC50 (LoVo/DX cells; Homo sapiens, LoVo/DX, 72 h exposure, SRB, mean ± SD, n.a = no activity in concentration of 5, 25, 125, 625 μM) was 261 ± 104 µM and the “Selectivity index SI, LoVo/DX” value (LoVo/DX cells; SI = IC50 BALB/3T3 / IC50 LoVo/DX) was 1.62.

Reference: PMC7896091, “Synthesis of novel phytol-derived γ-butyrolactones and evaluation of their biological activity” (Scientific Reports, 2021)
